Activity calls are given as the source filed them.
Key:
[1] = Potency on glucagon-like peptide 1 release, dose-response in NCI-H716 cell line, half maximal inhibitory concentration (AID 1117344); type: functional, cell-based
[2] = test system: Streptococcus sp. 'group A'; experiment: Streptococcus pyogenes SK(-)GAS viability under kanamycin – luminescence, BacTiterGlo, confirmation, counter-screen for streptokinase expression inhibitor project, dose response (AID 1900); type: functional, organism-based
[3] = cytotoxicity toward HCT116 cells – cell-based, CellTiter-Glo luminescence, IC50, dose response (AID 1117332); type: functional; conditions: HCT-116
[4] = biological target: Envelope glycoprotein gp160 (Human immunodeficiency virus 1, UniProt Q6QLK5); experiment: cell-free HIV fusion peptide-binding blockers – biochemical, uHTS, fluorescence dequenching, […] (AID 1986)
[5] = biological target: STE20-like serine/threonine-protein kinase (Homo sapiens, UniProt Q9H2G2); type: functional
STE20-like serine/threonine-protein kinase, sequence (Q9H2G2 whole entry): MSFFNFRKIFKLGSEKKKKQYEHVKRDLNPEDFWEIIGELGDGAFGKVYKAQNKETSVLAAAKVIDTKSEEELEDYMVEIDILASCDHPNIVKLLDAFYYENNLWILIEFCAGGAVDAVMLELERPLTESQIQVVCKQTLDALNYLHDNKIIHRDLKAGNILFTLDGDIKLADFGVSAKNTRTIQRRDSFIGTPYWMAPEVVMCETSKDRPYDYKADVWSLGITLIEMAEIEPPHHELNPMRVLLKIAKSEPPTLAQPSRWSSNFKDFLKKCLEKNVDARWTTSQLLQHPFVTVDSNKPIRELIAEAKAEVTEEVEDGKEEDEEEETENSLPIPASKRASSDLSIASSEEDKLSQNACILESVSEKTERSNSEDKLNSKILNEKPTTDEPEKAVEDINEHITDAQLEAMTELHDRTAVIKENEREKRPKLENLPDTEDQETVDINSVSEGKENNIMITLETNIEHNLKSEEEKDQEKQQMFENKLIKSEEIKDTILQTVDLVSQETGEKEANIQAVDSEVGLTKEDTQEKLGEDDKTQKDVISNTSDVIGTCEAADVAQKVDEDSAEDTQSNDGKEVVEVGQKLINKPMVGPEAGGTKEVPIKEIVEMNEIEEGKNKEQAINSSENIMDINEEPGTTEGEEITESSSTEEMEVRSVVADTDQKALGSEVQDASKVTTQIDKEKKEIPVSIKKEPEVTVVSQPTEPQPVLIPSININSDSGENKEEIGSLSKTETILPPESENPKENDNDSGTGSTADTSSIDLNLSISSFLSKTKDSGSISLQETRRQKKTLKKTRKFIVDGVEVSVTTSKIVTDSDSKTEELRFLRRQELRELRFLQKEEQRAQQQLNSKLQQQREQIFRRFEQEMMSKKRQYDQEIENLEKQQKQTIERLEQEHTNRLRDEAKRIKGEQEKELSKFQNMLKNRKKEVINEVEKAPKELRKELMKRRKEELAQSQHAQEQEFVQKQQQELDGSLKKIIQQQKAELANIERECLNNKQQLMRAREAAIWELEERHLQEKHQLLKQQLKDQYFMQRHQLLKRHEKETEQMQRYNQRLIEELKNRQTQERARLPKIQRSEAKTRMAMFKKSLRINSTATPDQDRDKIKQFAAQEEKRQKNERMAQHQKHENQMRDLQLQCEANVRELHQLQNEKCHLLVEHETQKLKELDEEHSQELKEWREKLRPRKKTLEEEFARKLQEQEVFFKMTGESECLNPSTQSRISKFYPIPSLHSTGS

[6] = biological target: 5'-AMP-activated protein kinase catalytic subunit alpha-1 (Homo sapiens, UniProt Q13131); type: functional
[7] = biological target: Protein kinase C iota type (Homo sapiens, UniProt P41743); type: functional;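 note: measured within a kinome-wide kinase panel, PRKCI as panel member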
[8] = biological target: Lymphokine-activated killer T-cell-originated protein kinase (Homo sapiens, UniProt Q96KB5); type: functional;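 note: value comes from a kinase panel screen in which TOPK was one of the panel members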
[9] = biological target: Dual specificity protein kinase CLK4 (Homo sapiens, UniProt Q9HAZ1); type: functional
[10] = biological target: Serine/threonine-protein kinase Nek2 (Homo sapiens, UniProt P51955); type: functional
Serine/threonine-protein kinase Nek2, sequence (P51955 whole entry): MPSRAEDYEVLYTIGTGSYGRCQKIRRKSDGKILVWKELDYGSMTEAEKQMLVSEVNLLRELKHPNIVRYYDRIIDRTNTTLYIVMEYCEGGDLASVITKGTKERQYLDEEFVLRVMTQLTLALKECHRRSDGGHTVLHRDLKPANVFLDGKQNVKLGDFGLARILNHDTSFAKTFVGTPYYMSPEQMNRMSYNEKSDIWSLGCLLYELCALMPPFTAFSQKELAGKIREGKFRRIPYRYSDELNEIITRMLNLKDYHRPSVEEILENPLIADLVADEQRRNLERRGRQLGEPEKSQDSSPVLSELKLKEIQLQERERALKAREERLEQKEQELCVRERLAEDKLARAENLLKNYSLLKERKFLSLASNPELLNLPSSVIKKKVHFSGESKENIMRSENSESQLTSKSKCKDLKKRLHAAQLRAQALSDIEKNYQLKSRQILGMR

Activated CDC42 kinase 1 = Activated CDC42 kinase 1 (Homo sapiens, UniProt Q07912); experiment: Navigating the Kinome. Panel member name: ACK1; type: functional
[11] = biological target: Dual specificity tyrosine-phosphorylation-regulated kinase 4 (Homo sapiens, UniProt Q9NR20); type: functional
[12] = biological target: MAP kinase-activated protein kinase 3 (Homo sapiens, UniProt Q16644); type: functional;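 note: value comes from a kinome-wide profiling panel in which MAPKAPK3 is one of the panel members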
[13] = biological target: Dual specificity tyrosine-phosphorylation-regulated kinase 1B (Homo sapiens, UniProt Q9Y463); experiment: Navigating the Kinome. Panel member name: DYRK1B; type: functional
Dual specificity tyrosine-phosphorylation-regulated kinase 1B, sequence (Q9Y463 whole entry): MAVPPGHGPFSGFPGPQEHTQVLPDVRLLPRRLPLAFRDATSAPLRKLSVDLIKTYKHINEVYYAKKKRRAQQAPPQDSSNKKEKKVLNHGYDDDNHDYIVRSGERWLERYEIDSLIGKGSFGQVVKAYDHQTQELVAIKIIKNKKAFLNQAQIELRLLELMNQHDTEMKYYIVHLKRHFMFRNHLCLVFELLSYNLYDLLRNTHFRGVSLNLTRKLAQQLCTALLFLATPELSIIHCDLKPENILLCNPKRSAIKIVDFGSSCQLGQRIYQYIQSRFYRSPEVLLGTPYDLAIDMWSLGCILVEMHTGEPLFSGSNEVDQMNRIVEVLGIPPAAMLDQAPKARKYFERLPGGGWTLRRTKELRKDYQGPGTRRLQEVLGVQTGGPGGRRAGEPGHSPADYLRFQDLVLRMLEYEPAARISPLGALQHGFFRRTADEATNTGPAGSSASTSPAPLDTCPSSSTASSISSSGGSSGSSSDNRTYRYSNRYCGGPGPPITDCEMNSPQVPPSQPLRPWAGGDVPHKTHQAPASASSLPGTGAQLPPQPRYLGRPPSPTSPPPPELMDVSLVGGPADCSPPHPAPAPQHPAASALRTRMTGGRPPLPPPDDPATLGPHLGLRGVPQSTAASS

[14] = biological target: Vascular endothelial growth factor receptor 1 (Homo sapiens, UniProt P17948); type: functional;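 note: measured within a kinome-wide profiling panel, FLT1 as the panel member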
[15] = biological target: Phosphorylase b kinase gamma catalytic chain, liver/testis isoform (Homo sapiens, UniProt P15735); type: functional;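 note: PHKG2 measured as one member of a kinome-wide kinase panel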
[16] = biological target: Cyclin-dependent kinase 5 (Homo sapiens, UniProt Q00535); type: functional;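 note: CDK5 measured as one member of a kinase profiling panel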
[17] = biological target: Serine/threonine-protein kinase 17A (Homo sapiens, UniProt Q9UEE5); type: functional
Serine/threonine-protein kinase 17A, sequence (Q9UEE5 whole entry): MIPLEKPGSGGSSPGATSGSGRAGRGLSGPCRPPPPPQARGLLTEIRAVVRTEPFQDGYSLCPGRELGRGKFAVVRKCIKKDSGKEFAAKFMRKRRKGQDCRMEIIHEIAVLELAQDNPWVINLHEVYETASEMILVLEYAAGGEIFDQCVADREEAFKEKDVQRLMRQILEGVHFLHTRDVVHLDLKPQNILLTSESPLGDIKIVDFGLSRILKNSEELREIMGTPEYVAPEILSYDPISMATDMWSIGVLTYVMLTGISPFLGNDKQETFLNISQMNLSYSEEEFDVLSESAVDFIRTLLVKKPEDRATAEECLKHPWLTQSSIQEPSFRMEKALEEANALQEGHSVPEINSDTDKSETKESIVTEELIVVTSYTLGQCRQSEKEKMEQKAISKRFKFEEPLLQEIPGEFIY

[18] = biological target: Protein kinase C gamma type (Homo sapiens, UniProt P05129); type: functional
[19] = biological target: Mitogen-activated protein kinase 9 (Homo sapiens, UniProt P45984); type: functional;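 note: value from a kinome panel profiling assay, MAPK9 panel entry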
[20] = biological target: Serine/threonine-protein kinase MRCK alpha (Homo sapiens, UniProt Q5VT25); type: functional
Serine/threonine-protein kinase MRCK alpha, sequence (Q5VT25 whole entry): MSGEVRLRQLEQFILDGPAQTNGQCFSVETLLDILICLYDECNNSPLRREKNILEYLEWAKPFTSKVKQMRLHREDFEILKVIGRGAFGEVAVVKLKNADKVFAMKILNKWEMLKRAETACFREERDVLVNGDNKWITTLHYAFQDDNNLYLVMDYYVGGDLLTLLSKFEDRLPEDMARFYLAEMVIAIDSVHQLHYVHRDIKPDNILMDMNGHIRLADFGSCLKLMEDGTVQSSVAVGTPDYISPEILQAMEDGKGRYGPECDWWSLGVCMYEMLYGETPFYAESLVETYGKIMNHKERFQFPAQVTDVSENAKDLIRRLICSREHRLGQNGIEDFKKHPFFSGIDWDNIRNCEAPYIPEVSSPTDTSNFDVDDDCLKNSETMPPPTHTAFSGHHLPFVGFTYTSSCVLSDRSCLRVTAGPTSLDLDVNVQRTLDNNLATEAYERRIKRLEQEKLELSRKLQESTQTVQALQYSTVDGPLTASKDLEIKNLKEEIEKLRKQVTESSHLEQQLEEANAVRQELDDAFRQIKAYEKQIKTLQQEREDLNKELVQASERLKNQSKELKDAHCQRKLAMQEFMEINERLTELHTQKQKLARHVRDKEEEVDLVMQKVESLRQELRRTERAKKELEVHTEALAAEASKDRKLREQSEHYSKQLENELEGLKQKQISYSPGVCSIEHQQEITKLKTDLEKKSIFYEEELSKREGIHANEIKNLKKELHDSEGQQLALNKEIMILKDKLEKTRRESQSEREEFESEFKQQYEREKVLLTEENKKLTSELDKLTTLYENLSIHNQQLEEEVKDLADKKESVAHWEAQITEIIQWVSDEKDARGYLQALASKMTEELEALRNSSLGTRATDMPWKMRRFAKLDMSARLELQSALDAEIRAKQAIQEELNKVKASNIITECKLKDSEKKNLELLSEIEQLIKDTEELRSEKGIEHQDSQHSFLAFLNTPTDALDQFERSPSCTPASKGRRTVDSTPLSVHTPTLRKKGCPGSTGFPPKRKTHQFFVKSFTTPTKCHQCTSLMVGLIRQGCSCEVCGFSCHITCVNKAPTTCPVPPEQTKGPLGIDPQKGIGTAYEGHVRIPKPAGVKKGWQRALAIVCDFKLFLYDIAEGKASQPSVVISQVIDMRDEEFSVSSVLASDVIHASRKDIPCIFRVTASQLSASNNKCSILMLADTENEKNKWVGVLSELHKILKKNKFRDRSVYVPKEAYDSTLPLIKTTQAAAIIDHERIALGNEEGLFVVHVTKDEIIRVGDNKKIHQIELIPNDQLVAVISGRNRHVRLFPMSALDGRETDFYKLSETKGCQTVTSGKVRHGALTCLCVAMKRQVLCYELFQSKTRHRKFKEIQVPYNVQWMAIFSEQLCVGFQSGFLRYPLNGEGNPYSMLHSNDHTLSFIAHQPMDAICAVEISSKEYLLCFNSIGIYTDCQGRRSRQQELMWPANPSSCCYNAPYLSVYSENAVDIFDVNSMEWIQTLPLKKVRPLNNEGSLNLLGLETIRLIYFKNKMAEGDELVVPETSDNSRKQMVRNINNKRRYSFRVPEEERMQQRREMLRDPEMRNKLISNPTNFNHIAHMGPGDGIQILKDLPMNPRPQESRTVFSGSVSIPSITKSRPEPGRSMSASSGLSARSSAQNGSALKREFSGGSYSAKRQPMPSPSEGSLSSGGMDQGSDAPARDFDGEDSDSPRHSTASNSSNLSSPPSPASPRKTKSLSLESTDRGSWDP

[21] = biological target: Serine/threonine-protein kinase pim-2 (Homo sapiens, UniProt Q9P1W9); type: functional;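 note: value comes from a broad kinase panel profiling study in which PIM2 was one of the panel members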
Serine/threonine-protein kinase pim-2, sequence (Q9P1W9 whole entry): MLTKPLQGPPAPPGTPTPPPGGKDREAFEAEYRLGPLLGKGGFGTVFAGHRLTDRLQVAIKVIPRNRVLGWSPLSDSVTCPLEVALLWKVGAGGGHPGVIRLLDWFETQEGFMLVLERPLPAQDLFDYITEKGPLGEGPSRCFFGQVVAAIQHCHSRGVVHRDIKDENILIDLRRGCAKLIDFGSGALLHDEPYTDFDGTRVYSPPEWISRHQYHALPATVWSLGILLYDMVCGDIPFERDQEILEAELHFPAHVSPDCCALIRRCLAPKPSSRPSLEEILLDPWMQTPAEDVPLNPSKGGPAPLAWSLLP

SRSF protein kinase 1 = SRSF protein kinase 1 (Homo sapiens, UniProt Q96SB4); type: functional;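 note: measured as one member of a kinome-wide kinase profiling panel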
HEK293 = experiment: cells; type: functional, cell-based; conditions: Homo sapiens
[22] = biological target: Peroxisome proliferator-activated receptor gamma/Nuclear receptor corepressor 2 (Homo sapiens, UniProt P37231+Q9Y618); type: functional
Phospholipase A2 = Phospholipase A2 (Homo sapiens, UniProt P04054); type: functional;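 note: confirmatory dose-response counterscreen on phospholipase A2, testing hits that came from an ultra-high-throughput screen for ATG4B inhibitors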
Phospholipase A2, sequence (P04054 whole entry): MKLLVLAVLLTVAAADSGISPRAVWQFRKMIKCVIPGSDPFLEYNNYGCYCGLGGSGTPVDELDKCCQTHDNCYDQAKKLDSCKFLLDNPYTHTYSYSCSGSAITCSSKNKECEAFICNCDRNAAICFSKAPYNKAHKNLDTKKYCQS

[23] = biological target: T1, Histone-lysine N-methyltransferase NSD2 (Homo sapiens, UniProt O96028); type: biochemical
T1 sequence (O96028 whole entry): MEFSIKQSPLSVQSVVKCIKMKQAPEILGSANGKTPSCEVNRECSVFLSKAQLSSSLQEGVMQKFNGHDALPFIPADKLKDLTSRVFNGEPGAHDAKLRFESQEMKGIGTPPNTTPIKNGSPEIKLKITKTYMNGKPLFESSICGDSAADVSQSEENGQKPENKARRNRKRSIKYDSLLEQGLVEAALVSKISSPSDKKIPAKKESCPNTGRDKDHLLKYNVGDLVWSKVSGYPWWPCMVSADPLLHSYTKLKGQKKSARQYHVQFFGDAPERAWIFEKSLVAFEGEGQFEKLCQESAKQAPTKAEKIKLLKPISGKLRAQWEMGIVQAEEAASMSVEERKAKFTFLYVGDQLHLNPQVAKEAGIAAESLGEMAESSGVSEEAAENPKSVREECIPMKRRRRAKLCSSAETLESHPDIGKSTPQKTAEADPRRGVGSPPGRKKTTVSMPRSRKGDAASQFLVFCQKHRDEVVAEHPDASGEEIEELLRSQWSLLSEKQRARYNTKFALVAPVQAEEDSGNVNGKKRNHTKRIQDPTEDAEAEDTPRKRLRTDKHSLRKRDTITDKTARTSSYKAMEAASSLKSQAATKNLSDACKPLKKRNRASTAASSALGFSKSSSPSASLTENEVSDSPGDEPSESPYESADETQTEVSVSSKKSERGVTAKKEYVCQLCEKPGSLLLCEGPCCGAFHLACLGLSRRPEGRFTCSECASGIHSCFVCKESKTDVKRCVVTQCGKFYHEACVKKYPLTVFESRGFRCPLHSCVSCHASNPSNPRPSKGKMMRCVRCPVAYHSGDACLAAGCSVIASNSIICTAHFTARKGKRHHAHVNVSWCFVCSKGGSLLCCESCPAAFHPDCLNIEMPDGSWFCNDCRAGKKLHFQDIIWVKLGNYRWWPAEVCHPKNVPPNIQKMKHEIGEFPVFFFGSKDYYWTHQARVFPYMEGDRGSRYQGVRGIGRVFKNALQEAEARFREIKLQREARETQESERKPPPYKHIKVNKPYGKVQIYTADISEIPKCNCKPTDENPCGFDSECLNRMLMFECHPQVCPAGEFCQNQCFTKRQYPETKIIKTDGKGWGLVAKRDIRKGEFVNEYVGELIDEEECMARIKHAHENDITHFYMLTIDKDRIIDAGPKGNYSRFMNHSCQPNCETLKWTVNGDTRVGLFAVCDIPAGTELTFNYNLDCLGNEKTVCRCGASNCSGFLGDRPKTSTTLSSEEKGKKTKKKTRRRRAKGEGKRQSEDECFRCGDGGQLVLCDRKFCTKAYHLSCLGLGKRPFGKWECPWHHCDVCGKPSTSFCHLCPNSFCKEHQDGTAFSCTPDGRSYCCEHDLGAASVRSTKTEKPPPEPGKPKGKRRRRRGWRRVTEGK

CCc1oc2ccccc2c1C(=O)c1cc(Br)c(O)c(Br)c1 [BENZBROMARONE]
inactive: IC50 [1] > 40 µM
active: EC50 [2] 7.44 µM | IC50 [3] 1.06 µM | IC50 [4] 12.8 µM

N#Cc1ccc2[nH]c(O)c(-c3ccc(CN4CCOCC4)cn3)c2c1 [AZD-1080]
active: Ki [9] 2.51 µM | Ki [13] 1 µM | Ki [16] 0.398 µM | Ki [17] 0.501 µM
inactive: Ki [5] > 10 µM | Ki [6] > 2.51 µM | Ki [7] > 5.01 µM | Ki [8] > 10 µM | Ki [10] > 10 µM | Ki (Activated CDC42 kinase 1) > 3.98 µM | Ki [11] > 7.94 µM | Ki [12] > 10 µM | Ki [14] > 2.51 µM | Ki [15] > 5.01 µM | Ki [18] > 7.94 µM | Ki [19] > 3.98 µM | Ki [20] > 10 µM | Ki [21] > 1.58 µM | Ki (SRSF protein kinase 1) > 7.94 µM

O=C1C=C(N2CCOCC2)c2ccccc2C1=O
active: IC50 (HEK293) 9.46 µM | AC50 [23] 1.38 µM
> 39.8 µM (not active): IC50 [22]
inactive: IC50 (Phospholipase A2) > 80 µM

From ChEMBL document CHEMBL1201862, “PubChem BioAssay data set” (2004)
